The source made the active and inactive calls.
Tests used:
Cytochrome P450 2C9 = Cytochrome P450 2C9 (Homo sapiens, UniProt P11712); conditions: Potency
[1] = biological target: Voltage-dependent T-type calcium channel subunit alpha-1H (Homo sapiens, UniProt O95180); format: functional;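 note: channel activity triggered by adding a high calcium stimulation buffer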
[2] = biological target: T1, Small ubiquitin-related modifier 1 (Homo sapiens, UniProt P63165); experiment: inhibitors of SUMO1 peptide binding, dose response, biochemical, fluorescence polarization, uHTS hits (AID 624382); format: functional; conditions: read-out: IC50_Mean
[3] = biological target: Transitional endoplasmic reticulum ATPase (Homo sapiens, UniProt P55072); experiment: p97 ATPase inhibitors, dose response, biochemical (AID 1534)
[4] = biological target: T2, Bifunctional protein GlmU (Mycobacterium tuberculosis, UniProt P9WMN3); experiment: Inhibitors of Mycobacterial Glucosamine-1-phosphate acetyl transferase (GlmU). Secondary screen.; set-up: species or system Mycobacterium tuberculosis H37Rv
T2 sequence (P9WMN3 whole entry): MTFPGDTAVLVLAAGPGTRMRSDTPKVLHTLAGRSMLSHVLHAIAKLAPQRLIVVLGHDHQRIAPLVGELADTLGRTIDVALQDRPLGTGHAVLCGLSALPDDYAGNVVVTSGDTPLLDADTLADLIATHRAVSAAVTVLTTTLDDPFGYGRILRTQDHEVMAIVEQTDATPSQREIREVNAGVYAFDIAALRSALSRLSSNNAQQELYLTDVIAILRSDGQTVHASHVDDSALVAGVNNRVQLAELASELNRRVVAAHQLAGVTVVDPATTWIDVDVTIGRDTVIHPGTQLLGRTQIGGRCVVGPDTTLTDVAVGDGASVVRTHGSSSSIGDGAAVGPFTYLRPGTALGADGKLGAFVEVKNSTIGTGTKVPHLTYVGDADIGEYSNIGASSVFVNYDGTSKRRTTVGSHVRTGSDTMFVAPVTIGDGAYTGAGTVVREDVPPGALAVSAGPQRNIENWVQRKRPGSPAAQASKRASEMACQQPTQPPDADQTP

[5] = biological target: 26S proteasome non-ATPase regulatory subunit 14 (Homo sapiens, UniProt O00487); experiment: inhibition of proteasome subunit RPN11 – biochemical, fluorescence polarization, uHTS hits, confirmation (AID 602368); format: functional
[6] = biological target: T3, Zinc finger protein mex-5 (Caenorhabditis elegans, UniProt Q9XUB2); experiment: MEX-5/TCR-2 RNA interaction inhibitors, dose response, biochemical, C. elegans, fluorescence polarization (AID 1960)
T3 sequence (Q9XUB2 whole entry): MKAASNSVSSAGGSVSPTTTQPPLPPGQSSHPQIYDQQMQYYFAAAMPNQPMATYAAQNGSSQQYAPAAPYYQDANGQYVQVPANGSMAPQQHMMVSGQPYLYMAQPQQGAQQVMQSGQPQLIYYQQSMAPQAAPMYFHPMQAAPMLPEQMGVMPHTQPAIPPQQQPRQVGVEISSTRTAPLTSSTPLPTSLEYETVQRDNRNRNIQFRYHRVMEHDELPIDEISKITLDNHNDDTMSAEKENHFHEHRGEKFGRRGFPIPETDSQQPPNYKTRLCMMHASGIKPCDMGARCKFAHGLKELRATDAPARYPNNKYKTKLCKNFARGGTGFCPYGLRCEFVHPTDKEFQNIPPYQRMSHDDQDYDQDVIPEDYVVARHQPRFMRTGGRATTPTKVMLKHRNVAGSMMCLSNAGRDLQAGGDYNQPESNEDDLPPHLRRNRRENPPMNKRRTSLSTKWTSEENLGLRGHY

Aminopeptidase N = biological target: T4, Aminopeptidase N (Plasmodium falciparum FcB1/Columbia, UniProt O96935); experiment: P. falciparum M1AAP inhibitors, biochemical, fluorogenic H-Leu-NHMec substrate, 1536-well (AID 1445); set-up: species or system Plasmodium falciparum 3D7, 3D7
T4 sequence (O96935 whole entry): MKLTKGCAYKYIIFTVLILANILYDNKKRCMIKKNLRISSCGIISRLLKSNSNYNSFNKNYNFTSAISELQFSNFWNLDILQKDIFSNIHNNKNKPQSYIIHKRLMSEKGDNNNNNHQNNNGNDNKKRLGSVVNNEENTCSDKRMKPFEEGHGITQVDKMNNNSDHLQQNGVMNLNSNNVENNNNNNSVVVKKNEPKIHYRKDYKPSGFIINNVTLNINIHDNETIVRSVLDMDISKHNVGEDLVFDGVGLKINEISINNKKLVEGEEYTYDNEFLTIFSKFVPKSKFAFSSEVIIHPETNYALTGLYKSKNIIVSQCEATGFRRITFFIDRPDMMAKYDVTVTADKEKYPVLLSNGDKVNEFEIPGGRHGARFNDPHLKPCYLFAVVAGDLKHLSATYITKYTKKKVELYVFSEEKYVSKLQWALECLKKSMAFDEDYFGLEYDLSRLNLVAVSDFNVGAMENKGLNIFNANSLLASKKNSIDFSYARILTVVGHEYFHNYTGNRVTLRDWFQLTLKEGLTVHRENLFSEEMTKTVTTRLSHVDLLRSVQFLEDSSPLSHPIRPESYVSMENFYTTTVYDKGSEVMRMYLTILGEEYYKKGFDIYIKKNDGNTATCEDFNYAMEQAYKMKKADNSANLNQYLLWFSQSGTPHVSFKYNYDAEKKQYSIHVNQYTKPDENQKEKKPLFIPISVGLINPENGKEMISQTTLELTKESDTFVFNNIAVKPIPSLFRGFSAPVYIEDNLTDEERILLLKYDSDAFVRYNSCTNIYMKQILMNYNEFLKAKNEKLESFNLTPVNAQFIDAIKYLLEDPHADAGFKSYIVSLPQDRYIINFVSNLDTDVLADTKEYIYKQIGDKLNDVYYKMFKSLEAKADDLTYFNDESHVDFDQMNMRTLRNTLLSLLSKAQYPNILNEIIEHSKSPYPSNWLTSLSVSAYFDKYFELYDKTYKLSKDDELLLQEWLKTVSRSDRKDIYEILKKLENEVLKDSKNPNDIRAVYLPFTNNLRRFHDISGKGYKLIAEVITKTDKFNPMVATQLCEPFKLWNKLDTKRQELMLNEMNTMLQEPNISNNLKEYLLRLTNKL

Prothrombin = Prothrombin (Bos taurus, UniProt P00735); experiment: thrombin inhibition, dose response, biochemical, fluorescence polarization, uHTS hits (AID 602369); format: functional
[7] = biological target: T1, Small ubiquitin-related modifier 1; experiment: inhibitors of SUMO1 partner interactions, dose response, biochemical, FRET (AID 624383); format: functional; conditions: read-out: IC50_Mean
[8] = biological target: 72 kDa type IV collagenase (Homo sapiens, UniProt P08253); experiment: Dose Response validation of uHTS RPN11 inhibitor hits using a MMP-2 Fluorescence assay.; format: functional
[9] = biological target: Induced myeloid leukemia cell differentiation protein Mcl-1 (Homo sapiens, UniProt Q07820); format: functional
[10] = biological target: T5, RNA-editing ligase 1, mitochondrial (Trypanosoma brucei brucei, UniProt P86926); experiment: TbREL1 ligase inhibitors, dose response, biochemical, fluorescence, Trypanosoma brucei (AID 1117295); format: functional
T5 sequence (P86926 whole entry): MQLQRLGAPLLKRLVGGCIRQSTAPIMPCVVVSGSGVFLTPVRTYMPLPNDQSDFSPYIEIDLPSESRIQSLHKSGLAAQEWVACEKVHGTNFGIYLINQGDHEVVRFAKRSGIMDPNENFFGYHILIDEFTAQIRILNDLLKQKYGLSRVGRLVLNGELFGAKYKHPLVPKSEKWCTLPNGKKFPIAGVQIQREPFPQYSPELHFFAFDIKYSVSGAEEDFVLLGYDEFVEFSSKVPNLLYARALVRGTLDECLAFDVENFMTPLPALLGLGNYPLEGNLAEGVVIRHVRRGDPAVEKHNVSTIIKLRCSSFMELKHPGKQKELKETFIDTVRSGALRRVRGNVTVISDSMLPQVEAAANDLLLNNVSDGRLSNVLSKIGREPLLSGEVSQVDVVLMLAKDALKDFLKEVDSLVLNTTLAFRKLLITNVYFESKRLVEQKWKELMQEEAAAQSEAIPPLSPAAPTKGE

[11] = biological target: Transitional endoplasmic reticulum ATPase (Homo sapiens, UniProt P55072, C522A); experiment: C522A mutant p97 ATPase inhibitors, dose response, counter-screen for p97 inhibitor project, biochemical, luminescence (AID 1544)
[12] = biological target: T6, RNA-binding protein pos-1 (Caenorhabditis elegans, UniProt G5EF15); experiment: inhibitors of POS-1/mex-3 RNA binding, dose response, biochemical, fluorescence polarization (AID 1964);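 note: purified POS-1 fused to maltose binding protein made in E. coli; potency of compounds blocking POS-1 binding to fluorescent RNA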
T6 sequence (G5EF15 whole entry): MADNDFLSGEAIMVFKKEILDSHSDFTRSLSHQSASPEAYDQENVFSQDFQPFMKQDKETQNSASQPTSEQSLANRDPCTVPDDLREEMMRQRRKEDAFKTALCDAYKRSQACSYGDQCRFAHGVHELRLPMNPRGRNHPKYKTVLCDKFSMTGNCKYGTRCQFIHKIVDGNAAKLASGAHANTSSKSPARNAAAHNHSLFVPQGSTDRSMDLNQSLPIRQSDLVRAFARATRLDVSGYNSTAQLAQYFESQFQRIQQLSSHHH

Albumin = Albumin (Bos taurus, UniProt P02769); experiment: Counterscreen for inhibitors of T-cell receptor (TCR)-CD3 interaction: Fluorescence-based biochemical high throughput dose response assay to identify inhibitors of T-cell receptor (TCR)-CD3 interaction using a TAMRA-labeled BSA probe.; format: functional
[13] = biological target: T7, Corticotropin-releasing factor receptor 2/Corticotropin-releasing factor-binding protein (Homo sapiens, UniProt P24387+Q13324); experiment: Dose Response confirmation of uHTS hits for small molecule antagonists of the CRF-binding protein and CRF-R2 receptor complex.; format: functional; conditions: read-out: IC50_Mean
T7 sequence (Q13324 whole entry): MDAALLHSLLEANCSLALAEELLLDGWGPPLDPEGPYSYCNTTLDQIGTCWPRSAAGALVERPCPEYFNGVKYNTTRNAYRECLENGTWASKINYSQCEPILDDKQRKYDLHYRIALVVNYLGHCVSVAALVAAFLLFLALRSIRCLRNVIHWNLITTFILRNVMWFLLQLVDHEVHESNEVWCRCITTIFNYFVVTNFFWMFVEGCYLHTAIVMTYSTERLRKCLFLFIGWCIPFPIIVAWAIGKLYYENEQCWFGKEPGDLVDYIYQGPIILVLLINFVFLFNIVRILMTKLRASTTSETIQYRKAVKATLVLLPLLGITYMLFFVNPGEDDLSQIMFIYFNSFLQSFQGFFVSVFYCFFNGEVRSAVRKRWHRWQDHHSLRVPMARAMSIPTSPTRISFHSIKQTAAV
T7 sequence (P24387 whole entry): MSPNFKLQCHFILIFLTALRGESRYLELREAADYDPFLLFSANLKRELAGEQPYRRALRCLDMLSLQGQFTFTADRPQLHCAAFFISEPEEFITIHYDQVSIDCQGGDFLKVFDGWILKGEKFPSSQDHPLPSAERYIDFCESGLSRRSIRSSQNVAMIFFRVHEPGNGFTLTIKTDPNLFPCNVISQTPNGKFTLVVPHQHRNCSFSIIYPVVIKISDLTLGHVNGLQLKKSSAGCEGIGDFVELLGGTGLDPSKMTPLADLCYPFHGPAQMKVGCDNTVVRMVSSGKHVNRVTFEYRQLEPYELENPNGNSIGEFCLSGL

[14] = biological target: T8, Long-chain-fatty-acid--AMP ligase FadD28 (Mycobacterium tuberculosis, UniProt P9WQ59); experiment: Fluorescence polarization aasay to screen for inhibitors that compete for the binding of FadD28 to a bisubstrate Measured in Biochemical System Using Plate Reader - 2147-01_Inhibitor_Dose_CherryPick_Activity.; format: functional, Mycobacterium tuberculosis H37Rv
T8 sequence (P9WQ59 whole entry): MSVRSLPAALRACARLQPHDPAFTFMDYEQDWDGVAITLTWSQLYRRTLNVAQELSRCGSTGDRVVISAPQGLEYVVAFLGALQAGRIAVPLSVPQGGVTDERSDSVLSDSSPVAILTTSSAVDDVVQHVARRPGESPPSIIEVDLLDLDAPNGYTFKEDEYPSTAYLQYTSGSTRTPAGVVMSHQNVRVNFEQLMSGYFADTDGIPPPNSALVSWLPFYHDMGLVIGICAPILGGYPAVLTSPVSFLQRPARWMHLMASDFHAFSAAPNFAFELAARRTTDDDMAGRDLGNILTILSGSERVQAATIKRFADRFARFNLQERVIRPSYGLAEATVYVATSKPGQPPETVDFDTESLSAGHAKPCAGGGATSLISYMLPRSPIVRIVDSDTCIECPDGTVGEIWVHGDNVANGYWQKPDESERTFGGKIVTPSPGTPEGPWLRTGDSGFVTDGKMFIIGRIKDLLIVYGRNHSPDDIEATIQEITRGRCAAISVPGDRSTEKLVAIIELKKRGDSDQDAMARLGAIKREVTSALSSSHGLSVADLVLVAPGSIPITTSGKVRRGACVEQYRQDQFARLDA

[15] = CRF-BP/CRF-R2 complex antagonists, dose response, cell-based, uHTS hits, 384-well (AID 651639); format: functional, Homo sapiens; conditions: read-out: IC50_Mean
[16] = biological target: T7, Corticotropin-releasing factor receptor 2/Corticotropin-releasing factor-binding protein; experiment: activators of CRF receptor 2 with binding protein – uHTS hits, confirmation (AID 602473); format: functional; conditions: read-out: EC50_Mean

T1 sequence (P63165 whole entry): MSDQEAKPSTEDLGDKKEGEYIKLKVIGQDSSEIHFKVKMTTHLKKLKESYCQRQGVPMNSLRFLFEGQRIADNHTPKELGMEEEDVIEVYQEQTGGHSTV
Transitional endoplasmic reticulum ATPase (Homo sapiens, UniProt P55072), sequence (P55072 whole entry): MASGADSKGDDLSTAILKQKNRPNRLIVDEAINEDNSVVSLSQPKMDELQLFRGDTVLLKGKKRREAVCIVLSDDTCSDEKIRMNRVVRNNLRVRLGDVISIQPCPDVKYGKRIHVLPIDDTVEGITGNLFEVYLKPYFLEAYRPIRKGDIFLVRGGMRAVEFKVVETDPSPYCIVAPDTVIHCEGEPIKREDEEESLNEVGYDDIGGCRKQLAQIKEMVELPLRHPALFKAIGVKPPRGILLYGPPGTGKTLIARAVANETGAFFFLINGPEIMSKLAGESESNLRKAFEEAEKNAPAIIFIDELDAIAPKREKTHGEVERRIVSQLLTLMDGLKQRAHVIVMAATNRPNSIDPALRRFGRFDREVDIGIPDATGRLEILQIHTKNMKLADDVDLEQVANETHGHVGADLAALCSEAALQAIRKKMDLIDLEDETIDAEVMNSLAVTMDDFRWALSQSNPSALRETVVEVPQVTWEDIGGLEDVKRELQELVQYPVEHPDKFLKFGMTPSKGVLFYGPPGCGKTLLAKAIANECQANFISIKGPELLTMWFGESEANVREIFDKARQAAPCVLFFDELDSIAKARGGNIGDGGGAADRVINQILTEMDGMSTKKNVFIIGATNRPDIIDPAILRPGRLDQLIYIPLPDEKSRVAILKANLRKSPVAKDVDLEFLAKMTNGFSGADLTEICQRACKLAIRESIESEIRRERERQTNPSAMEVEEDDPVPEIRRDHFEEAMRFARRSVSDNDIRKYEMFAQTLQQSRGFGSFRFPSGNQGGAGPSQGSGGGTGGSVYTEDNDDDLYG
Voltage-dependent T-type calcium channel subunit alpha-1H, sequence (O95180 whole entry): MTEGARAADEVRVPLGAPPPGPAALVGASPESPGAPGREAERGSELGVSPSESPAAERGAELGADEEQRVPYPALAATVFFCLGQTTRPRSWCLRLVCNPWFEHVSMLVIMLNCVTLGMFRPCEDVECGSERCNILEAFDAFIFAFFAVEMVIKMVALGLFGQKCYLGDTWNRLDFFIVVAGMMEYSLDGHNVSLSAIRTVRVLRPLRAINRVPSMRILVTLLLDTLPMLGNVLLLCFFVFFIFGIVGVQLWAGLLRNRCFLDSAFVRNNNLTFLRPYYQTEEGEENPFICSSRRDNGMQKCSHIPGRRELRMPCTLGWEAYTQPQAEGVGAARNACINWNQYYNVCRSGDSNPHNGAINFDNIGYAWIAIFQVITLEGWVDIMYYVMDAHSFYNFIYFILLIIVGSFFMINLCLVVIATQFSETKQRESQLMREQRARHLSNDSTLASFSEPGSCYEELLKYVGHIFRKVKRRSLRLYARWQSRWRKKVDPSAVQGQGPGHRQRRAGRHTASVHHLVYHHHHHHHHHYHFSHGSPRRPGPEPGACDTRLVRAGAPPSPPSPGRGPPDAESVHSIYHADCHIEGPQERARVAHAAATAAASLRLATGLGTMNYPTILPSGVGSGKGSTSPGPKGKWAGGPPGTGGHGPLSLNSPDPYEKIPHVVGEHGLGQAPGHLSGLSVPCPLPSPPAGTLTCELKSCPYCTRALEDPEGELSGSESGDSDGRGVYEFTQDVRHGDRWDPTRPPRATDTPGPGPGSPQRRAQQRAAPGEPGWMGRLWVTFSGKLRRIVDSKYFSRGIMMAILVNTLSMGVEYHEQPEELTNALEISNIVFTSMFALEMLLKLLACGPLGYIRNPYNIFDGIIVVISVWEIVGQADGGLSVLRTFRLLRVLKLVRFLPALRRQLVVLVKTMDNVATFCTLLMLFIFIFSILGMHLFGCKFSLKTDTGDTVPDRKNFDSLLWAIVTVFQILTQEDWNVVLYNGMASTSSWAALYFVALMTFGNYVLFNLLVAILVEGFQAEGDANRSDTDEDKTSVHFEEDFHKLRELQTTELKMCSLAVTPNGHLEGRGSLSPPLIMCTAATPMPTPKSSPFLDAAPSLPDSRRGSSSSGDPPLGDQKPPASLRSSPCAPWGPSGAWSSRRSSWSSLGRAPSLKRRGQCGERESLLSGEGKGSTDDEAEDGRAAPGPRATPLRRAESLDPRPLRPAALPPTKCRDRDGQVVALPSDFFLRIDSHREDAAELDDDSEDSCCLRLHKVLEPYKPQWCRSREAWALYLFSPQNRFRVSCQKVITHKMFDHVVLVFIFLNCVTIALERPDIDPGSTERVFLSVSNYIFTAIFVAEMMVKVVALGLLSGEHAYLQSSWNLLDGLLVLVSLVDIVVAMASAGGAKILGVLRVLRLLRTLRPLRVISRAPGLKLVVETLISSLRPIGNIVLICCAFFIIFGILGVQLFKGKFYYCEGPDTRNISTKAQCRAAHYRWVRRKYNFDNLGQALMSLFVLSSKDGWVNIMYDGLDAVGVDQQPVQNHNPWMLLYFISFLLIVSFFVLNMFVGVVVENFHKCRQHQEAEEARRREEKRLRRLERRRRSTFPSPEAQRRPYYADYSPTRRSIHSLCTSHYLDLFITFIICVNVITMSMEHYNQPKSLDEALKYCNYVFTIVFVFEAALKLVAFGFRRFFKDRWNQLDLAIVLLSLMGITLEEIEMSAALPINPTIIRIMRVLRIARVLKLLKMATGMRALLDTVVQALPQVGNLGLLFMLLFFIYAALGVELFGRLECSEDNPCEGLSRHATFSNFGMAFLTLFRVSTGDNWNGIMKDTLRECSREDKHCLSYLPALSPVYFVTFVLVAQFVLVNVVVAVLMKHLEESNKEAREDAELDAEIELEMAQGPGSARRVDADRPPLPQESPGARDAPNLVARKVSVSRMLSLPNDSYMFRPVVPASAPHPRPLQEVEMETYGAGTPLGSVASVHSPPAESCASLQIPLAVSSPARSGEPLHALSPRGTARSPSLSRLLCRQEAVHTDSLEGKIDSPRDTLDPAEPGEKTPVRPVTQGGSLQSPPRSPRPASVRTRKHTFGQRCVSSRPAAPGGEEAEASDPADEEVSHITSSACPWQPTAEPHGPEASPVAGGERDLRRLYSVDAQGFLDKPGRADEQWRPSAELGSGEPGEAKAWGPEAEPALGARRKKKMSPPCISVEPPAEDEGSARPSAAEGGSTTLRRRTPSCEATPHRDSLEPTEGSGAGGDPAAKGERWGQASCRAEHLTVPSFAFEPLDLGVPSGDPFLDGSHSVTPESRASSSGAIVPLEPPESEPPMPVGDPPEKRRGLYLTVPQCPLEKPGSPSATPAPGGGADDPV
Transitional endoplasmic reticulum ATPase (Homo sapiens, UniProt P55072, C522A), sequence (P55072 2-806 C522A limits assumed): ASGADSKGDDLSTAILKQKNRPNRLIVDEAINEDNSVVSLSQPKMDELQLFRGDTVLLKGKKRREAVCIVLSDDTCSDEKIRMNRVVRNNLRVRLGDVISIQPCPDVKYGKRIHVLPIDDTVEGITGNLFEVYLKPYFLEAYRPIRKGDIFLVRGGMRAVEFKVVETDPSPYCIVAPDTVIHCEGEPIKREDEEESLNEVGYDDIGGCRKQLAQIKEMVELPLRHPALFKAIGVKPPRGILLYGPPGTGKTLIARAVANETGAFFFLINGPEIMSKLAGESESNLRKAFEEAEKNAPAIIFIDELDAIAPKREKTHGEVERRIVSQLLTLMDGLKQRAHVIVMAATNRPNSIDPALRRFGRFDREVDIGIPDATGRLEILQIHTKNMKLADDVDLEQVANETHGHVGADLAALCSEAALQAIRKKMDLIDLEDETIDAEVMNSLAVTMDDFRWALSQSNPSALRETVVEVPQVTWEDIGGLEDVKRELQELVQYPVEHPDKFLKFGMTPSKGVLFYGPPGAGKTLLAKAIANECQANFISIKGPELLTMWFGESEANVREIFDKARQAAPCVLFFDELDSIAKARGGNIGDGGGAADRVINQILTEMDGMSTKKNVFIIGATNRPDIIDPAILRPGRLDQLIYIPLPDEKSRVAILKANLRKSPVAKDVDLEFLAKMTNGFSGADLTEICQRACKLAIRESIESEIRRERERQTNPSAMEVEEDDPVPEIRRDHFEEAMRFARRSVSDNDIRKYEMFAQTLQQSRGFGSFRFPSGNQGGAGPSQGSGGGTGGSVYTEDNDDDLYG
72 kDa type IV collagenase, sequence (P08253 whole entry): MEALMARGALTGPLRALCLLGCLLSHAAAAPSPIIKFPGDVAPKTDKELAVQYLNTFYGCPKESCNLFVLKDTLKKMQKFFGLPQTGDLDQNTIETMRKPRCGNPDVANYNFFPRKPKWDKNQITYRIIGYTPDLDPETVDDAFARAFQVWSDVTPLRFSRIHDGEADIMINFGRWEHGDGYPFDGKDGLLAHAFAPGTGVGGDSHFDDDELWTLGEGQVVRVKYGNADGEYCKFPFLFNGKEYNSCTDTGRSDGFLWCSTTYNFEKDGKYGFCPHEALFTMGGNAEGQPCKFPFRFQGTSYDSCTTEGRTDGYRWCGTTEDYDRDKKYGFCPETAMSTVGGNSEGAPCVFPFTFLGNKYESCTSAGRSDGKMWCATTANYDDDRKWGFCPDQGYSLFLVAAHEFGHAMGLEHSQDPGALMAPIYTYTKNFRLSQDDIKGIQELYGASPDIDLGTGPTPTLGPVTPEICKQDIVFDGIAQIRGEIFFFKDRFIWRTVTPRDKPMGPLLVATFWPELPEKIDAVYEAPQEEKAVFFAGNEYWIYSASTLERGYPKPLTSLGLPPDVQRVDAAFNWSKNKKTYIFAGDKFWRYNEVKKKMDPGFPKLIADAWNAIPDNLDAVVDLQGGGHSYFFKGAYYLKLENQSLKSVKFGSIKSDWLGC
Induced myeloid leukemia cell differentiation protein Mcl-1, sequence (Q07820 whole entry): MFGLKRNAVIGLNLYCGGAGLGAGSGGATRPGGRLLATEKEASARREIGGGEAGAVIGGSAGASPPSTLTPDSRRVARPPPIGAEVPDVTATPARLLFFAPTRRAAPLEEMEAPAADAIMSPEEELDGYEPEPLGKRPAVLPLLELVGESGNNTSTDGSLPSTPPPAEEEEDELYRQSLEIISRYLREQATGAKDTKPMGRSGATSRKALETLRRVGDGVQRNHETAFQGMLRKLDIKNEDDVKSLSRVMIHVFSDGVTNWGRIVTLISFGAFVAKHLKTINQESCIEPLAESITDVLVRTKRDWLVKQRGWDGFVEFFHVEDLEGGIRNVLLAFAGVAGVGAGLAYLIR

COc1ccc(-c2oc3cc(OC)c(OC(C)=O)c(OC)c3c(=O)c2OC)cc1OC(C)=O
AC50 (Cytochrome P450 2C9): 31.6 µM (inconclusive)

CCCOc1cc(C)c(S(=O)(=O)n2ccc(C)n2)cc1C
EC50 [1]: 5.47 µM (active)

CCC(=O)N1CCN(c2ccccc2NC(=O)Cc2ccccc2)CC1
EC50 [1]: 12.9 µM (active)

Cc1n[nH]c(S/C(=C\c2ccc(-c3ccc(C(=O)O)c(Cl)c3)o2)C(=O)O)n1
IC50 [2]: > 66.6 µM (inactive)
IC50 [3]: > 50 µM (not active)
IC50 [4]: 61.9 µM (active)
IC50 [5]: 9.04 µM (active)
EC50 [6]: 1.38 µM (active)
IC50 (Aminopeptidase N): 11.3 µM (active)
IC50 (Prothrombin): 9.79 µM (active)
IC50 [7]: 13.1 µM (active)
IC50 [8]: > 100 µM (inactive)
IC50 [9]: 2.35 µM (active)
IC50 [10]: 22.9 µM (inactive)
IC50 [11]: > 50 µM (not active)
EC50 [12]: 1.76 µM (active)
IC50 (Albumin): > 94.1 µM (inactive)

Cc1[nH]c2ccccc2c1/C=C1/C(=N)N2C(=NC1=O)SN=C2S(=O)(=O)CC(C)C
IC50 [3]: 12.3 µM (not active)
IC50 [13]: 9.51 µM (active)
AC50 [14]: > 100 µM (inactive)
IC50 [15]: > 20 µM (inactive)
IC50 (Aminopeptidase N): 29.5 µM (active)
EC50 [16]: > 53 µM (inactive)
IC50 [11]: > 50 µM (not active)

Source: ChEMBL document CHEMBL1201862, “PubChem BioAssay data set” (2004)
